Assay: Compound was evaluated for half life at 37 degree Centigrade

half-life [min]	SMILES
3	CCCCC[C@H](O)/C=C/[C@@H]1[C@H]2C/C(=C/CCCC(=O)O)O[C@H]2C[C@H]1O [EPOPROSTENOL]
0.5	CCCCC[C@H](O)/C=C/C1OC2CC(O2)[C@@H]1C/C=C\CCCC(=O)O (some centres not stated)
